According to PMC7826463, “Pamiparib dose escalation in Chinese patients with non‐mucinous high‐grade ovarian cancer or advanced triple‐negative breast cancer” (Cancer Medicine, 2020):
“And” between values parts separate entries of the source, which are not always exact repeats. Equal entries are not always repeated.

Test system: non-mucinous high-grade ovarian cancer (HGOC)
Assay: Antitumor activity per RECIST v1.1 (best overall response, ORR, CBR, PFS) in patients with HGOC
Format: in vivo, human
Description: Secondary objectives were assessment of PK parameters and antitumor activity. Blood samples for the PK analysis were collected at Cycle 1 on Days 1, 2, and 3. Pharmacokinetic sampling was performed at Cycle 1 on Day 1 (predose and at 0.5, 1, 2, 4, 6, 9, and 12 hours postdose), Day 2, Day 3, and Day 10 (predose and at 0.5, 1, 2, 4, 6, 9, and 12 hours postdose); then at Cycles 2 and 3 on Day 1 (predose and at 2 hours postdose). […] Tumor assessments were performed by the investigators at screening, every 6 weeks after the first dose of pamiparib in the 1st year, and every 12 weeks thereafter until progression, per RECIST v1.1. Patients completed the study at the time of their safety follow‐up visit; therefore, radiological assessment of disease progression was not performed after the safety follow‐up visit. Approximately 14 to 18 evaluable patients were expected to enroll in the phase 1 part of the study. The safety population included all patients who received ≥1 dose of pamiparib. The PK population included all patients for whom valid pamiparib PK parameters could be estimated. Antitumor activity per RECIST v1.1 was assessed in all evaluable patients. […] The population evaluable for CA‐125 response included patients in the safety population with baseline CA‐125 ≥2 x upper limit of normal. Descriptive statistics were used to summarize all study data. Continuous variables included the number of non‐missing observations, mean, standard deviation, median, minimum, and maximum. Categorical variables were summarized by their frequency and percentage. Progression‐free survival was estimated using the Kaplan–Meier method and the corresponding 95% confidence interval (CI) was constructed using Greenwood's formula. Standard PK parameters (i.e., area under the plasma concentration‐time curve [AUC] from time of drug administration; maximum plasma concentration [Cmax]; time to Cmax; elimination half‐life [t1/2]; apparent clearance; and apparent volume of distribution during terminal phase) were estimated and derived using standard non‐compartmental methods.

[1] = HGOC (n = 8), RECIST efficacy-evaluable
[2] = HGOC (n = 8), RECIST efficacy-evaluable, 20-60 mg BID

C[C@]12CCCN1CC1=NNC(=O)c3cc(F)cc4[nH]c2c1c34 [pamiparib, Pamiparib]
Clinical benefit rate (CR+PR+SD ≥24 weeks) [1]: 62.5 % (95% CI) and 62.5 (24.5‐91.5) % (95% CI) | Disease control rate (CR+PR+SD) [1]: 100 % (95% CI) and 100.0 (63.1‐100) % (95% CI) | Objective response rate (CR+PR) [1]: 25.0 (3.2‐65.1) % (95% CI) | Best overall response: Complete response [2]: 0 n (%) | Best overall response: Progressive disease [2]: 0 n (%) | Event-free rate at 3 months (95% CI) (HGOC (n=9), Kaplan-Meier): 85.7 (33.41–97.86) % | Event-free rate at 6 months (95% CI) (HGOC (n=9), Kaplan-Meier): 68.6 (21.28–91.21) % | Event-free rate at 9 months (95% CI) (HGOC (n=9), Kaplan-Meier): 68.6 (21.28–91.21) % | Median PFS (95% CI) (HGOC (n=9), Kaplan-Meier, NE, not estimable): NE (2.86–NE) | PFS Events (HGOC (n=9), safety population): 2 (22.2) n (%) | Confirmed PR, gBRCA WT patients (RECIST-evaluable HGOC (n = 8)): 1 n | Confirmed PR, gBRCA mut patients (RECIST-evaluable HGOC (n = 8)): 1 n | Response duration at data cut-off (one patient with HGOC, 20 mg dose level, PR, treatment ongoing): 27.7 months
